Measurements from US20250236878A1 (priority 2019, published 2025).
Read-outs that look alike come from different tables or passages of the source.

How the values were obtained:
[1] = system: Citrus trees infected with Candidatus Liberibacter asiaticus; type: in vivo, Citrus x paradisi
[2] = system: Citrus trees infected with CLas; type: in vivo, Citrus x paradisi; Citrus sinesis; settings: average of 'Ruby Red' and 'Valencia'
From the text: Treatments as previously described in Example 3; β-1,3-Endoglucanase from barley SEQ ID NO: 731 (Treatment 1) and Bt.4Q7Flg22 from Bacillus thurigiensis SEQ ID NO: 226 (Treatment 5) increased fruit yield (kg/tree) as described in Table 56. Fruit quality, and juice quality of ‘Valencia’ oranges are described in Table 57.
For direct comparison of the treatment results between grapefruit (‘Ruby Red’) and orange (‘Valencia’) are referenced in Table 56 above.

[3] = system: Citrus trees infected with CLas; assay: Recovery composition trunk injection: 'Valencia' orange fruit yield (Examples 3, 19); type: in vivo, Citrus sinesis; settings: for Average Yield (Relative to Untreated) / Average Yield (kg per tree): 'Valencia' orange; for Average Yield (Relative to Untreated) / Average Yield (kg per tree) / increased yield compared to the untreated control: trunk injection; for increased yield compared to the untreated control: 'Valencia' trees; for yield, average relative to control: 'Valencia', combined average of 2 sites (Table 56)
[4] = system: Citrus trees infected with CLas; design: species or system Citrus sinesis; settings: in vivo
[5] = system: Citrus trees infected with Candidatus Liberibacter asiaticus (CLas); design: species or system Citrus sinensis; settings: in vivo
[6] = system: Citrus trees infected with Candidatus Liberibacter asiaticus (CLas); design: species or system Citrus sinensis; settings: in vivo; remark: listed apart in the source
[7] = system: Citrus trees infected with Candidatus Liberibacter asiaticus; design: species or system Citrus x paradisi; settings: in vivo
[8] = system: corn hybrids Beck's 6127 BHMF and 6127 DVMF; settings: in vivo
[9] = system: Candidatus Liberibacter asiaticus (CLas); settings: in vivo
[10] = system: field mustard (Brassica rapa) seedlings; assay: Root hair and lateral root elongation in liquid-culture grown field mustard seedlings (Example 13); settings: for Experiment A: Average Root Hair Length Per Plant (mm) / Experiment B: Average Length of Three Longest Lateral Roots Per Plant (mm) / Experiment A: Average Root Hair Length Per Plant, % of UTC / Experiment B: Average Length of Three Longest Lateral Roots Per Plant, % of UTC: field mustard seedlings, peptide 10 μM; for Experiment A: Average Root Hair Length Per Plant (mm) / Experiment B: Average Length of Three Longest Lateral Roots Per Plant (mm) / average lateral root length compared to untreated control / average root hair length compared to untreated control / increases in average lateral root length relative to control / increases in root hair length relative to control: liquid culture; for Experiment A: Average Root Hair Length Per Plant (mm) / Experiment B: Average Length of Three Longest Lateral Roots Per Plant (mm): about three days; for Experiment A: Average Root Hair Length Per Plant (mm): UTC = 0.137; for Experiment B: Average Length of Three Longest Lateral Roots Per Plant (mm): UTC = 0.632; for average lateral root length compared to untreated control / average root hair length compared to untreated control / increases in average lateral root length relative to control / increases in root hair length relative to control: approximately three days
[11] = system: HLB-infected citrus trees; design: species or system Citrus sinesis; Citrus paradisi; settings: in vivo
[12] = system: HLB-infected citrus trees; assay: Citrus trials of Examples 20-24: fruit yield, size, count and drop, average over orange and grapefruit trials; type: in vivo, Citrus sinesis; Citrus paradisi
Protocol: All fruit with a diameter greater than or equal to 1.6 inches (40 mm) were hand-picked and collected for each tree. The total “Fruit Weight” (in kilograms) per individual tree was measured and recorded. Trees with total fruit weights less than or greater than 2 standard deviations (2STDEV) from the trial mean were considered to be outliers and removed from the dataset. Fruit size was assessed as the “Average Weight per Fruit” in grams (weight of 20 random fruit per tree, divided by 20) and “Average Fruit Diameter” in millimeters, as described in Example 1. The “Average Fruit Count” per tree was assessed as the total “Fruit Weight” divided by “Average Weight per Fruit”. “Fruit Drop” was assessed as for Example 1. Fruit quality was assessed as for Example 2, with the exception that one set of fruit consisted for 15 total fruit, each corresponding to a sampling of 3 fruit from 5 trees of the same experimental treatment block. Each set of 15 fruit were weighed (gram; g) and then juiced together. Average yield, % fruit drop, fruit size, and juice quality for each of the tested compositions are described in Examples 20-24.

| Compound | Experiment A: Average Root Hair Length Per Plant (mm) [10] | Experiment B: Average Length of Three Longest Lateral Roots Per Plant (mm) [10] | Experiment A: Average Root Hair Length Per Plant, % of UTC [10] | Experiment B: Average Length of Three Longest Lateral Roots Per Plant, % of UTC [10] | average lateral root length compared to untreated control [10] | average root hair length compared to untreated control [10] | also measured |
| --- | --- | --- | --- | --- | --- | --- | --- |
| N[C@@H](CS)C(=O)O [L-Cysteine, L-cysteine] |  |  |  |  |  |  | Average Yield (Relative to Untreated) ([1]; […], trunk injection): (101%); Average Yield (kg per tree) ([1]; […], trunk injection): 34.8 kg per tree; Average Yield (Relative to Untreated), Average of 2 sites [2]: (103%); Average Yield (Relative to Untreated) [3]: (105%); Average Yield (kg per tree) [3]: 42.3 kg per tree; increased yield compared to the untreated control [3]: +2.0 kg per tree; yield, average relative to control [3]: 103%; Average Fruit Diameter (Relative to Untreated) [4]: (104%); Average Fruit Diameter (mm) [4]: 62.52 mm; Brix:CA Ratio [4]: 12.76; Brix:CA Ratio (Relative to Untreated) [4]: (+1.51); fruit size and ^oBrixc to Citric Acid ratio (Brix:CA) relative to the untreated control [4]: increased |
| DRLSSGKRINSAKDDAAGLAIA (listed as Bacillus thuringiensis) [Bt.4Q7Flg22Syn01, Modified FLG22-Bt4Q7 (S13K)] |  |  |  |  |  |  | total increased yield (kg) per tree [5]: 26%; Brix [6]: 9.4; juice content [6]: 46% |
| DRLSSGKRINSASDDAAGLAIA (listed as Bacillus thuringiensis) [Bt.4Q7Flg22, Flg22 flagellin-associated polypeptide from Bacillus thuringiensis strain 4Q7] |  |  |  |  |  |  | Average Yield (Relative to Untreated) ([1]; in vivo): (108%); Average Yield (kg per tree) ([1]; in vivo): 37.2 kg per tree; increased yield compared to the untreated control ([1]; in vivo): 2.6 kg per tree; fruit size, juice volume, % juice content and ^oBrixc to Citric Acid ratio (Brix:CA) relative to the untreated control [7]: increased; average yield benefit over the control corn plants [8]: +6.44 flu/Ac; total increased yield (kg) per tree [5]: 33%; decreased bacterial titers relative to the untreated control [9]: 20%; reduction in CLas bacterial titers compared to initial levels [9]: 16%; Average Yield (Relative to Untreated), Average of 2 sites [2]: (113%); Average Yield (Relative to Untreated) [3]: (119%); Average Yield (kg per tree) [3]: 48.1 kg per tree; increased yield compared to the untreated control [3]: 7.8 kg per tree; yield, average relative to control [3]: 113%; Average Fruit Diameter (Relative to Untreated) [4]: (101%); Average Fruit Diameter (mm) [4]: 60.72 mm; Brix:CA Ratio [4]: 12.11; Brix:CA Ratio (Relative to Untreated) [4]: (+0.86); fruit size and ^oBrixc to Citric Acid ratio (Brix:CA) relative to the untreated control [4]: increased |
| GGARAAPAGEER (Brachypodium distachyon) [SEQ ID NO: 747] | 0.137 mm | 0.959 mm | (99% of UTC) | (152% of UTC) | Increased | did not improve |  |
| GGIRAAPT (listed as Physcomitrella patens) [SEQ ID NO: 745] | 0.145 mm | 0.853 mm | (105% of UTC) | (135% of UTC) | Increased | increased |  |
| GGIRAAPTGKER [SEQ ID NO: 754] |  |  |  |  | Increased | increased |  |
| GGIRAAPTGNER (Glycine max) [GmRHPP, Root Hair Promoting Peptide, Glycine max] | 0.172 mm | 0.971 mm | (125% of UTC) | (154% of UTC) | Increased | increased | increases in average lateral root length relative to control [10]: +54%; increases in root hair length relative to control [10]: +25%; ^oBrixc:Citric Acid Ratio and pounds-solids per tree [11]: increased; more total sugar than control trees treated with surfactant alone, on average [11]: 13.500; reduction in CLas bacterial titers compared to initial levels [9]: 17%; increased yield (kg fresh fruit per tree) relative to control trees treated with surfactant control alone, on average ([12]; foliar (Table 73)): 13.9%; decrease in fruit drop relative to surfactant control, on average ([12]; foliar (Table 74)): 22%; more fruit retained at harvest relative to surfactant control, on average ([12]; foliar (Table 74)): 19%; effect on fruit size ([12]; foliar (Table 75)): no effect; fruit weigh more than fruit from control trees treated with surfactant alone, on average ([12]; foliar (Table 75)): 6.2% |
| GGIRAARTGNER [SEQ ID NO: 753] |  |  |  |  | Increased | increased |  |
| GGIRASPTGNER [SEQ ID NO: 755] |  |  |  |  | Increased | increased |  |
| GGIRATPTENER (Glycine max) [SEQ ID NO: 607] |  |  |  |  | Increased | increased |  |
| GGIRDAPTGNER [SEQ ID NO: 752] |  |  |  |  | Increased | increased |  |
| GGIRRAPTGNER [SEQ ID NO: 751] |  |  |  |  | Increased | increased |  |
| GGIRRARTGNE (listed as Vigna radiata) [SEQ ID NO: 750] | 0.147 mm |  | (107% of UTC) |  | Increased | increased |  |
| GGIRTAITGNE (listed as Vigna angularis) [SEQ ID NO: 748] | 0.151 mm | 0.929 mm | (110% of UTC) | (147% of UTC) | Increased | increased |  |
| GGIRVAATGKER (Glycine max) [SEQ ID NO: 608] |  |  |  |  | Increased | increased |  |
| GGISASPTGN (listed as Lactuca sativa) [SEQ ID NO: 749] | 0.182 mm | 1.058 mm | (132% of UTC) | (168% of UTC) | Increased | increased | increases in average lateral root length relative to control [10]: +68%; increases in root hair length relative to control [10]: +32% |
| GIRDAPAGNE (listed as Macleaya cordata) [SEQ ID NO: 746] | 0.165 mm | 0.822 mm | (120% of UTC) | (130% of UTC) | Increased | increased |  |
